In patent US12371428B2 (Exelixis, Inc., priority 2019, dated 2025):
Counter-ions that a name gives are not always drawn.

Tests used:
[1] = target: Met (phospho-Met, HGF-stimulated PC-3 prostate cancer cells) (Homo sapiens (Human), UniProt P08581); assay: Met autophosphorylation ELISA in PC-3 cells (Example F); type: cell-based; conditions: cellular activity; Met autophosphorylation ELISA in PC-3 cells; read-out: c-Met IC50
Method in brief: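 Serum-starved (3 h) PC-3 cells were treated 1 h with compounds (8-point curve, 0.3% DMSO), then stimulated with 100 ng/mL human HGF for 10 min. Lysate phospho-Met (panTyr) was measured by sandwich ELISA, normalised to DMSO and reference-inhibitor controls. IC50 came from 4-parameter logistic fit.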

[2] = target: Human KDR (residues 790-1356) (Homo sapiens (Human), UniProt P35968); assay: Human KDR kinase assay, HTRF KinEase (Example B-2); type: biochemical; conditions: protocol of Example B-2 (other compounds)
Method in brief: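 Ten compound concentrations (3% DMSO final) were pre-plated, then KDR (790-1356) with biotinylated peptide in Mg/Mn/DTT buffer was added; ATP at Km (4.0 μM) started a 40 min room-temperature reaction. Detection used Eu-TK antibody and SA-XL665 in EDTA buffer; activity normalized to DMSO and reference inhibitor, IC50 by logistic fit.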

[3] = target: Mer (phospho-Mer, MERTK-transfected 293A cells) (Homo sapiens (Human), UniProt Q12866); assay: Mer autophosphorylation ELISA in transient transfected 293A cells (Example H); type: cell-based; conditions: cellular activity; Mer autophosphorylation ELISA in transient transfected 293A cells
Method in brief: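 IC50 from phospho-Mer ELISA of MERTK-transfected 293A cell lysates after 1 h treatment with serially diluted compound in serum-free medium.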

Human KDR (residues 790-1356), sequence (P35968 790-1356): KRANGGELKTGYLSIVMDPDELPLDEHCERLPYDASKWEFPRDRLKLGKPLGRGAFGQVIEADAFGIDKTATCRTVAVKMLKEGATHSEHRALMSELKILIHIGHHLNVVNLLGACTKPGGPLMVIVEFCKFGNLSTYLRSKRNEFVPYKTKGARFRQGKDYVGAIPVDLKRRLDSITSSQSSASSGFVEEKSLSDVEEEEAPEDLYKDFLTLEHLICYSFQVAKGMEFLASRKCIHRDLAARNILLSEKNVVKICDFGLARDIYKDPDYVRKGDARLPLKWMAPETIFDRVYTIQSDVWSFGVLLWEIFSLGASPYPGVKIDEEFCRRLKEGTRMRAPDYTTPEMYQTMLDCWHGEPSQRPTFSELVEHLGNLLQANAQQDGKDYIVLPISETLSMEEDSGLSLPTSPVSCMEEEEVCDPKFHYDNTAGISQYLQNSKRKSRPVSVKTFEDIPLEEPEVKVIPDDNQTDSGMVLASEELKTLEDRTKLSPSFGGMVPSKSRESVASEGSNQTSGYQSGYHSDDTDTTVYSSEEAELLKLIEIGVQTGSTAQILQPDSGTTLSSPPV
Met (phospho-Met, HGF-stimulated PC-3 prostate cancer cells), sequence (P08581 25-1390): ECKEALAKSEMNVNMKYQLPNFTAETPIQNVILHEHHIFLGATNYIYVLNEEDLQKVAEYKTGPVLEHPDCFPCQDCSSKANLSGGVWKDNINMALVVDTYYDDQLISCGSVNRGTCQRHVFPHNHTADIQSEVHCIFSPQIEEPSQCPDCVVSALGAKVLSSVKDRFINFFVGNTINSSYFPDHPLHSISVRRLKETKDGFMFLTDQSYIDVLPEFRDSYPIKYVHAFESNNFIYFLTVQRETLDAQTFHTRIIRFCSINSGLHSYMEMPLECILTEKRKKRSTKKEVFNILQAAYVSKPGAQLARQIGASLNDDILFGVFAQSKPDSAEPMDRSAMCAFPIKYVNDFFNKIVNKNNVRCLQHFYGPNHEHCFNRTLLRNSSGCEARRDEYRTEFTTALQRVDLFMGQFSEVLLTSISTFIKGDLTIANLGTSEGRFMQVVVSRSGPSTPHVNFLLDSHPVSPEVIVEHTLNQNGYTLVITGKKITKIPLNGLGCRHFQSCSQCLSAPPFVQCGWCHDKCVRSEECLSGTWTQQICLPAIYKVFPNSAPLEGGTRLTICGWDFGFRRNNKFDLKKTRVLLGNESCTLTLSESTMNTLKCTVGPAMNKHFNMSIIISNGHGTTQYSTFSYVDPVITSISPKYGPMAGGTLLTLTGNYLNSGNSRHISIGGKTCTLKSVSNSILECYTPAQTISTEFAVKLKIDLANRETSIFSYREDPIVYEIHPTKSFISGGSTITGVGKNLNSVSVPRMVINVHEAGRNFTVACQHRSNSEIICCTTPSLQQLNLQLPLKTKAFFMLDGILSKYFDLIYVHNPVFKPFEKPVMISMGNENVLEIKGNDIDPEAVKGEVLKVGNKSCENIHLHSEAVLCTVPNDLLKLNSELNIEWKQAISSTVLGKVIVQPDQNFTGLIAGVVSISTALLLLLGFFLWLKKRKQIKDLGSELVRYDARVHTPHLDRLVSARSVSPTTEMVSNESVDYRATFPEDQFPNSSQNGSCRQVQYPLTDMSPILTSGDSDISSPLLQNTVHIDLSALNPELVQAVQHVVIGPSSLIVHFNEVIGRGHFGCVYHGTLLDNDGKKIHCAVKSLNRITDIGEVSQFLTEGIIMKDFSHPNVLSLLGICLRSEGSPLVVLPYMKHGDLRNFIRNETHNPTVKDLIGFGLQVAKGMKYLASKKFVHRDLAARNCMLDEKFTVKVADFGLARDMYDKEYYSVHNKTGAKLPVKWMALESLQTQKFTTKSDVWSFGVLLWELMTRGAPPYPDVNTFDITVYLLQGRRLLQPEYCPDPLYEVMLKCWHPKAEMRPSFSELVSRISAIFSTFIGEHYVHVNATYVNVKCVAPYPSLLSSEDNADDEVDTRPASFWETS
Mer (phospho-Mer, MERTK-transfected 293A cells), sequence (Q12866 21-999): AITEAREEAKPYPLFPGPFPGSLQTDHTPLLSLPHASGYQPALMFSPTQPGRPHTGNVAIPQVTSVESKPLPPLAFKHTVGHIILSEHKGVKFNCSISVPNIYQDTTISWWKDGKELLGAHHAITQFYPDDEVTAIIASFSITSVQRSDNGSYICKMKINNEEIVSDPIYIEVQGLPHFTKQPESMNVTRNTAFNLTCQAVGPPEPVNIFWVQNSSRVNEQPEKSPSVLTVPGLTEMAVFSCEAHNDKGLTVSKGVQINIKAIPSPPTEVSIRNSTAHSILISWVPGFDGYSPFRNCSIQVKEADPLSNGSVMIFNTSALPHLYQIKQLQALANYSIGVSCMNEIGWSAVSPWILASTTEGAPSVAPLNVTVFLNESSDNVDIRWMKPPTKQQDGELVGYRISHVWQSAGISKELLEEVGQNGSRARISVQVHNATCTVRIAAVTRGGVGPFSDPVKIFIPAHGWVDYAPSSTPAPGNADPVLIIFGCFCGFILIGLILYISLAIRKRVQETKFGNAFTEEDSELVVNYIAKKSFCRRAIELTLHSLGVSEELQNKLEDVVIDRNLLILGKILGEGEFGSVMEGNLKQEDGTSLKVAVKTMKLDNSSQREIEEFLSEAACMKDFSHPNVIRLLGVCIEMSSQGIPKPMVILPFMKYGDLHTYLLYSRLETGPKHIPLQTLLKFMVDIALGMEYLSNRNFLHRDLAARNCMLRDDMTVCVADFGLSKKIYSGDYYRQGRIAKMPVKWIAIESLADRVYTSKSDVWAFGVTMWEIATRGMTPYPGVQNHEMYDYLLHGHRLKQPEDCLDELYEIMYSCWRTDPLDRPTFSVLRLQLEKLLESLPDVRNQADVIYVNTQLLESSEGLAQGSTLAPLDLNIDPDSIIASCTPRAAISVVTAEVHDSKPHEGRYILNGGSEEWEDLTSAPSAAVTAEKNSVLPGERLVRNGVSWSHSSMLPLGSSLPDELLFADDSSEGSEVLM

IC50 [1] [nM]	IC50 [2] [nM]	IC50 [3] [nM]	SMILES
< 100	100 to 300	< 100	COc1cnc2c(Oc3ccc(NC(=O)c4cnc(CO)c(-c5ccc(F)cc5)c4O)cc3)ccnc2c1 [Compound 218, 5-(4-Fluorophenyl)-4-hydroxy-6-(hydroxymethyl)-N-[4-[(7-methoxy-1,5-naphthyridin-4-yl)oxy]phenyl]pyridine-3-carboxamide]
< 100	> 300	< 100	COc1ccc2nccc(Oc3ccc(NC(=O)c4cnc(C)n(-c5ccc(F)cc5)c4=O)cc3F)c2n1 [Compound 232, N-[3-Fluoro-4-[(6-methoxy-1,5-naphthyridin-4-yl)oxy]phenyl]-1-(4-fluorophenyl)-2-methyl-6-oxopyrimidine-5-carboxamide]
< 100	< 100	< 100	COCc1nc(C)c(-c2ccc(F)cc2)c(O)c1C(=O)Nc1ccc(Oc2ccnc3cc(OC)c(OC)nc23)c(F)c1 [Compound 184, N-[4-[(6,7-Dimethoxy-1,5-naphthyridin-4-yl)oxy]-3-fluorophenyl]-5-(4-fluorophenyl)-4-hydroxy-2-(methoxymethyl)-6-methylpyridine-3-carboxamide]
< 100	100 to 300	< 100	COCc1nc(C)c(-c2ccc(F)cc2)c(O)c1C(=O)Nc1ccc(Oc2ccnc3ccc(OC)nc23)c(F)c1 [Compound 189, N-[3-Fluoro-4-[(6-methoxy-1,5-naphthyridin-4-yl)oxy]phenyl]-5-(4-fluorophenyl)-4-hydroxy-2-(methoxymethyl)-6-methylpyridine-3-carboxamide]
< 100	< 100	< 100	CCc1nc(C)c(-c2ccc(F)cc2C)c(O)c1C(=O)Nc1ccc(Oc2ccnc3cc(OC)c(OC)nc23)cc1 [Compound 203, N-[4-[(6,7-Dimethoxy-1,5-naphthyridin-4-yl)oxy]phenyl]-2-ethyl-5-(4-fluoro-2-methylphenyl)-4-hydroxy-6-methylpyridine-3-carboxamide]
< 100	> 300	< 100	COCc1nc(C)c(-c2ccc(F)cc2C)c(O)c1C(=O)Nc1ccc(Oc2ccnc3ccc(OC)nc23)c(F)c1 [Compound 195, N-[3-Fluoro-4-[(6-methoxy-1,5-naphthyridin-4-yl)oxy]phenyl]-5-(4-fluoro-2-methylphenyl)-4-hydroxy-2-(methoxymethyl)-6-methylpyridine-3-carboxamide]
< 100	> 300	< 100	COc1cnc2c(Oc3ccc(NC(=O)c4cn(C)c(C)c(-c5ccc(F)cc5C)c4=O)cc3F)ccnc2c1 [Compound 181, N-[3-Fluoro-4-[(7-methoxy-1,5-naphthyridin-4-yl)oxy]phenyl]-5-(4-fluoro-2-methylphenyl)-1,6-dimethyl-4-oxopyridine-3-carboxamide]
< 100	< 100	< 100	COc1cc2nccc(Oc3ccc(NC(=O)c4cn(C)c(C)c(-c5ccccc5)c4=O)cc3F)c2nc1OC [Compound 36, N-[4-[(6,7-Dimethoxy-1,5-naphthyridin-4-yl)oxy]-3-fluorophenyl]-1,6-dimethyl-4-oxo-5-phenylpyridine-3-carboxamide hydrochloride]
< 100	< 100	< 100	COc1cnc2c(Oc3ccc(NC(=O)c4c(C)nc(C)n(-c5ccc(F)cc5)c4=O)cc3F)ccnc2c1 [Compound 257, N-[3-Fluoro-4-[(7-methoxy-1,5-naphthyridin-4-yl)oxy]phenyl]-1-(4-fluorophenyl)-2,4-dimethyl-6-oxopyrimidine-5-carboxamide]
< 100	< 100	< 100	COc1cc2nccc(Oc3ccc(NC(=O)c4ccc(C)n(-c5ccc(F)cc5C)c4=O)cc3F)c2nc1OC [Compound 219, N-[4-[(6,7-Dimethoxy-1,5-naphthyridin-4-yl)oxy]-3-fluorophenyl]-1-(4-fluoro-2-methylphenyl)-6-methyl-2-oxopyridine-3-carboxamide]
< 100	< 100	< 100	COc1cc2nccc(Oc3ccc(NC(=O)c4ccc(C)n(-c5ccc(F)cc5)c4=O)cc3)c2nc1OC [Compound 229, N-[4-[(6,7-Dimethoxy-1,5-naphthyridin-4-yl)oxy]phenyl]-1-(4-fluorophenyl)-6-methyl-2-oxopyridine-3-carboxamide]
